Test results published in US20090286791A1, “Amide Compounds” (TAKEDA PHARMACEUTICAL COMPANY LIMITED, priority 2001, published 2009).

Target: T1, human DGAT1 (Homo sapiens, UniProt O75907)
T1 construct: made in house; host or cells: Sf9 insect cells (baculovirus BAC-DGAT1, pFASTBAC1); microsome fraction
T1 sequence (O75907 1-488): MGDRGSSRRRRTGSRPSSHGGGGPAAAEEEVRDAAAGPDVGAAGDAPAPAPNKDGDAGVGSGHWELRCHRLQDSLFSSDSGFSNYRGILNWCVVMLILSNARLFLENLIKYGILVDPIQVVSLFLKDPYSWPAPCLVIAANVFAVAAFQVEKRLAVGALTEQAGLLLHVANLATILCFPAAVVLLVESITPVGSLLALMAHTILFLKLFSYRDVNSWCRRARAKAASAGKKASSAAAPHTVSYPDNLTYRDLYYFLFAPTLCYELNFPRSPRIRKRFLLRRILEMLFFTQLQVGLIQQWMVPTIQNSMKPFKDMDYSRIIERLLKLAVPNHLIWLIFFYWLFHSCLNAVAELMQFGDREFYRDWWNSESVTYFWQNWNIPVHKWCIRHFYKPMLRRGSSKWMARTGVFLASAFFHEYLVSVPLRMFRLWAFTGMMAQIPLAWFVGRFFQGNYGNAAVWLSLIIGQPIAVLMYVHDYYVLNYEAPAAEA
Assay: DGAT inhibitory activity: [14C]-triglyceride synthesis with DGAT1 high expression Sf9 microsome
Type: biochemical
Conditions: 25 μM dioleoylglycerol, 25 μM [14C]-Oleoyl-CoA, 32° C., 20 min, read-out: hDGAT1 IC50
Description: The primer nucleotide sequence is shown below.
The PCR reaction was conducted using a KOD-plus kit (TOYOBO). The obtained PCR product was electrophoresed on agarose gel (1%), the DNA fragment amplified by PCR was recovered from the gel, and then digested with restriction enzymes EcoRI and SpeI. […] Furthermore, using BAC-TO-BAC Baculovirus Expression System (Invitrogen), recombinant baculovirus BAC-DGAT1 was prepared.
SF9 cells were sown at 1×10^6 cells/ml on Sf-900II SFM medium (1 L, Invitrogen) containing 10% fetal calf serum (Trace), 50 mg/L gentamicin (Invitrogen) and 0.1% Pluronic F-68 (Invitrogen), and shaking culture was performed using a 2 L volume Erlenmeyer flask at 27° C., 100 rpm. After culturing for 24 hrs, recombinant baculovirus BAC-DGAT1 (6.7 mL) was added, and the mixture was further cultured for 3 days. The culture medium was centrifuged at 2,000 rpm for 5 min to give virus-infected cells. The infected cells were washed with a phosphate buffered saline (Invitrogen), centrifuged under the same conditions, and the cells were preserved at −80° C. The cryopreserved cells were thawed in ice, suspended in buffer A (50 mM Tris buffer (30 mL, pH 7.4) containing 20% glycerol, 0.15 M NaCl) supplemented with Complete Protease Inhibitor (Boehringer), and ruptured 3 times with a Polytron homogenizer (Kinematica) at 20,000 rpm for 30 sec. The Sf9 microsome fractions were obtained by a conventional method and cryopreserved at −80° C. as a DGAT1 high expression Sf9 microsome.
As a DGAT1 reaction buffer, a solution having a composition of 100 mM Tris-HCl (pH 7.5), 250 mM sucrose, 150 mM MgCl2, 0.01% bovine serum albumin (BSA) was used. […] A mixture of 300 μL of chloroform:methanol (=1:2) was added to the reaction mixture to quench the reaction. The reaction mixture was sufficiently mixed and distilled water (200 μL) was added to partition the mixture between a chloroform layer (lower layer) and an aqueous layer (upper layer). […] The developed TLC plate was dried, contacted with a BAS imaging plate (manufactured by FUJIFIIM) and measured with BAS2500 (manufactured by FUJIFILM) 16 hr later to numerically show the amount of [^14C]-triglyceride (TG amount) produced during the reaction. The inhibitory rate was calculated by the following formula:
Inhibitory rate (%)=(1−(TG amount with addition of test compound−blank TG amount)/(control TG amount−blank TG amount))×100
The count of the triglyceride produced in the solution reacted without addition of the compound was used as a “control TG amount”, and the count of the triglyceride produced in the solution reacted without addition of the test compound and DGAT1 high expression Sf9 microsome was used as a “blank TG amount”.

| SMILES | IC50 [nM] |
| --- | --- |
| CN(C)CCNc1ccc(C(=O)NCCNC(=O)c2cn(-c3ccccc3)nc2C(F)(F)F)cn1 [Example A11, 6-(2-(dimethyl-amino)ethylamino)-N-(2-(1-phenyl-3-(trifluoromethyl)-1H-pyrazole-4-carboxamido)ethyl) nicotinamide] | 1000 to 10000 |
| O=C(NCCNC(=O)c1cn(-c2ccccc2)nc1C(F)(F)F)c1ccc(-n2cccn2)nc1 [Example A12, N-(2-(1-phenyl-3-(trifluoromethyl)-1H-pyrazole-4-carboxamido)ethyl)-6-(1H-pyrazol-1-yl) nicotinamide] | < 100 |
| CN(C)c1ccc(C(=O)NCCNC(=O)c2cn(-c3ccccc3)nc2C(F)(F)F)cn1 [Example A15, 6-(dimethylamino)-N-(2-(1-phenyl-3-(trifluoromethyl)-1H-pyrazole-4-carboxamido)ethyl)nicotinamide] | 100 to 1000 |
| CCCCc1ccc(C(=O)NCCNC(=O)c2cn(-c3ccccc3)nc2C(F)(F)F)nc1 [Example A24, 5-butyl-N-(2-(1-phenyl-3-(trifluoromethyl)-1H-pyrazole-4-carboxamido)ethyl)picolinamide] | 100 to 1000 |
| O=C(NCCNC(=O)c1cn(-c2ccccc2)nc1C(F)(F)F)c1ccc(OCCC(F)(F)F)nc1 [Example A42, N-(2-(1-phenyl-3-(trifluoromethyl)-1H-pyrazole-4-carboxamido)ethyl)-6-(3,3,3-trifluoropropoxy)nicotinamide] | < 100 |
| O=C(NCCNC(=O)c1cn(-c2ccccc2)c2ccccc12)c1ccc(OCC(F)(F)F)nc1 [Example A53, 1-phenyl-N-(2-(6-(2,2,2-trifluoroethoxy)nicotinamido)ethyl)-1H-indole-3-carboxamide] | < 100 |
| COc1nn(-c2ccccc2)cc1C(=O)NCCNC(=O)c1ccc(OCC(F)(F)F)nc1 [Example A55, N-(2-(3-methoxy-1-phenyl-1H-pyrazole-4-carboxamido)ethyl)-6-(2,2,2-trifluoroethoxy) nicotinamide] | 100 to 1000 |
| CN(C)c1nn(-c2ccccc2)cc1C(=O)NCCNC(=O)c1ccc(OCC(F)(F)F)nc1 [Example A58, N-(2-(3-(dimethylamino)-1-phenyl-1H-pyrazole-4-carboxamido)ethyl)-6-(2,2,2-trifluoroethoxy) nicotinamide] | 1000 to 10000 |
| CCCc1cc(CCC)c(C(=O)NCCNC(=O)c2cn(-c3ccccc3)nc2C(F)(F)F)cn1 [Example A76, N-(2-(1-phenyl-3-(trifluoro-methyl)-1H-pyrazole-4-carboxamido)ethyl)-4,6-di-propylnicotinamide] | 100 to 1000 |
| O=C(NCCNC(=O)c1cn(C(=O)c2ccccc2)c2ccccc12)c1ccc(OCC(F)(F)F)nc1 [Example A82, 1-benzoyl-N-(2-(6-(2,2,2-trifluoroethoxy)nicotinamido)ethyl)-1H-indole-3-carboxamide] | < 100 |
| O=C(NCCNC(=O)c1cn(-c2ccccc2)nc1C(F)(F)F)c1ccc(S(=O)(=O)c2ccccc2)nc1 [Example A86, N-(2-(1-Phenyl-3-(trifluoromethyl)-1H-pyrazole-4-carboxamido)ethyl)-6-(phenylsulfonyl)nicotinamide] | 100 to 1000 |
| N#Cc1cc(C(=O)NCCNC(=O)c2cn(-c3ccccc3)nc2C(F)(F)F)cnc1OCC(F)(F)F [Example A87, 5-Cyano-N-(2-(1-phenyl-3-(trifluoromethyl)-1H-pyrazole-4-carboxamido)ethyl)-6-(2,2,2-trifluoroethoxy)nicotinamide] | 100 to 1000 |
| O=C(NCCNC(=O)c1cn(-c2ccccc2)nc1C(F)(F)F)c1ccc(-c2ncon2)nc1 [Example A96, 6-(1,2,4-Oxadiazol-3-yl)-N-(2-(1-phenyl-3-(trifluoromethyl)-1H-pyrazole-4-carboxamido)ethyl)nicotinamide] | 100 to 1000 |
| O=C(NCCNC(=O)c1cn(-c2ccccc2)nc1C(F)(F)F)c1ccc(-c2noc(C(F)(F)F)n2)nc1 [Example A98, N-(2-(1-Phenyl-3-(trifluoromethyl)-1H-pyrazole-4-carboxamido)ethyl)-6-(5-(trifluoromethyl)-1,2,4-oxadiazol-3-yl)nicotinamide] | < 100 |
| CC(=O)Nc1ccc(C(=O)NCCNC(=O)c2cn(-c3ccccc3)nc2C(F)(F)F)cn1 [Example A99, 6-Acetamido-N-(2-(1-phenyl-3-(trifluoromethyl)-1H-pyrazole-4-carboxamido)ethyl)nicotinamide] | 1000 to 10000 |
| CC(C)c1nc(-c2ccc(C(=O)NCCNC(=O)c3cn(-c4ccccc4)nc3C(F)(F)F)cn2)no1 [Example A103, 6-(5-isopropyl-1,2,4-oxadiazol-3-yl)-N-(2-(1-phenyl-3-(trifluoromethyl)-1H-pyrazole-4-carboxamido)ethyl)nicotinamide] | < 100 |

The next lines start with the values.

| IC50 [nM] | SMILES |
| --- | --- |
| 100 to 1000 | CCOc1ccc(C(=O)NCCNC(=O)c2cn(-c3cccc(OCC)n3)nc2C(F)(F)F)cc1 [B6, N-(2-(4-ethoxybenzamido)ethyl)-1-(6-ethoxypyridin-2-yl)-3-(trifluorometh-yl)-1H-pyrazole-4-carboxamide] |
| 100 to 1000 | CCOc1ccc(C(=O)NC[C@@H](NC(=O)c2cn(-c3ccccc3)nc2C(F)(F)F)C(=O)OC)cc1 [C15] |
| < 100 | CCOc1ccc(C(=O)NCCNC(=O)c2cn(-c3ccc4[nH]ccc4c3)nc2C(F)(F)F)cc1 [Example B1, N-(2-(4-Ethoxybenzamido)ethyl)-1-(1H-indol-5-yl)-3-(trifluoromethyl)-1H-pyrazole-4-carboxamide] |
| 1000 to 10000 | CCOc1ccc(C(=O)N2CCCC2CNC(=O)c2cn(-c3ccccc3)nc2C(F)(F)F)cc1 (stereo not shown) [Example C11, N-((1-(4-ethoxybenzoyl)pyrrolidin-2-yl)methyl)-1-phenyl-3-(trifluoromethyl)-1H-pyrazole-4-carboxamide] |
| 1000 to 10000 | CCOc1ccc(C(=O)NCCNC(=O)c2cc(-c3ccccc3)cc(-c3ccccc3)n2)cc1 [Example D1, N-(2-(4-Ethoxybenzamido)ethyl)-4,6-diphenylpicolinamide] |
| 1000 to 10000 | CCOc1ccc(C(=O)NCCNC(=O)c2nn(-c3ccccc3)nc2C)cc1 [Example D6, N-(2-(4-ethoxybenzamido)ethyl)-5-methyl-2-phenyl-1H-1,2,3-triazole-4-carboxamide] |
